In article PMC11610652 (Archiv Der Pharmazie, 2024):
Read-outs that look alike come from different tables or passages of the source.

Tests used:
SIRT1 [1] = biological target: T1, SIRT1 (Homo sapiens, UniProt Q96EB6); assay: fluorescence-based deacetylase assay kit, human recombinant enzyme; type: biochemical; details: read-out: Inhibition (%±SD) / SIRT1 / 100 μM / 50 μM
T1 sequence (Q96EB6 2-747): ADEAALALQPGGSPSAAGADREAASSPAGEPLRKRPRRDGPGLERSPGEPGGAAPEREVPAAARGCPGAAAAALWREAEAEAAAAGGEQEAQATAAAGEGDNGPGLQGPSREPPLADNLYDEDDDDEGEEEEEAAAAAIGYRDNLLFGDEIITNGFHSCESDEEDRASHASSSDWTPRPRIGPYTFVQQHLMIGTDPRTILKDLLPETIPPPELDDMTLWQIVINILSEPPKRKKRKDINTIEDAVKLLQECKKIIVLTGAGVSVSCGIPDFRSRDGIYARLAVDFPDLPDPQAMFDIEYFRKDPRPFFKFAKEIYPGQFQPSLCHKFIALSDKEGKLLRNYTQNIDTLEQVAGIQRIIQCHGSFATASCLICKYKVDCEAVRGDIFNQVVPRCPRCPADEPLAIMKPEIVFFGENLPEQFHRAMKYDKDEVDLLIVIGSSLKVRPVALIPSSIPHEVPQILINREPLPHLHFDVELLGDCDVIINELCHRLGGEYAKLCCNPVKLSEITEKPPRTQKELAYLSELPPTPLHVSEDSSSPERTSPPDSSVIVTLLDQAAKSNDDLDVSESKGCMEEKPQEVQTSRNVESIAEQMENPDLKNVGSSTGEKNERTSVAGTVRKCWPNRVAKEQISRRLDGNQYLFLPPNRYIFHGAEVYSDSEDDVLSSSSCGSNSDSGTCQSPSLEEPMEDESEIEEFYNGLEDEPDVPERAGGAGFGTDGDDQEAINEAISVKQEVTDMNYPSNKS

SIRT1 [2] = biological target: T1, SIRT1; assay: biochemical; details: for inhibition at 100 µM: read-out: Inhibition (%±SD) / SIRT1 / 100 μM
SIRT3 [3] = biological target: T2, SIRT3 (Homo sapiens, UniProt Q9NTG7); assay: biochemical; details: for inhibition at 100 µM: read-out: Inhibition (%±SD) / SIRT3 / 100 μM; for inhibition at 50 µM: read-out: Inhibition (%±SD) / SIRT3 / 50 μM
T2 sequence (Q9NTG7 102-399): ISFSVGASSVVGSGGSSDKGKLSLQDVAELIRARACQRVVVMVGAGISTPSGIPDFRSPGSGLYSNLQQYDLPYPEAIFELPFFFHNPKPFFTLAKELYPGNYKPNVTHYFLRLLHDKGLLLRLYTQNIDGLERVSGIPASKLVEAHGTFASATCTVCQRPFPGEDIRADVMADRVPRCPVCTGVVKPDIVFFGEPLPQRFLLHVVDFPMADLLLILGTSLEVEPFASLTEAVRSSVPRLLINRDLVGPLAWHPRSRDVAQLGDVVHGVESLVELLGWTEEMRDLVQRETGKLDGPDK

SIRT2 [4] = biological target: T3, SIRT2 (Homo sapiens, UniProt Q8IXJ6); assay: biochemical; details: for inhibition at 50 µM: read-out: Inhibition (%±SD) / SIRT2 / 50 μM
T3 sequence (Q8IXJ6 2-389): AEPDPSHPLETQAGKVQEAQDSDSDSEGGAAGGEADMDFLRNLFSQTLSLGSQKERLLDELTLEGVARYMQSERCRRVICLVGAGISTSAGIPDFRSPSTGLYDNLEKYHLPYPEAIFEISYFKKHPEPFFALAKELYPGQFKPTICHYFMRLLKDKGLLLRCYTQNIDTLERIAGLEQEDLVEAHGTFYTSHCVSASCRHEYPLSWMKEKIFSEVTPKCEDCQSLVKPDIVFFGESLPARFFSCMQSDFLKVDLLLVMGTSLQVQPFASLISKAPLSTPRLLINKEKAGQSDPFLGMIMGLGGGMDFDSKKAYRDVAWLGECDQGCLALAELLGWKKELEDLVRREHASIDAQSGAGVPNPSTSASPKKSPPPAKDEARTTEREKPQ

SIRT2 [5] = biological target: T4, SIRT2 (Homo sapiens, UniProt Q8IXJ6); assay: fluorescence-based deacetylase assay kit, human recombinant enzyme; type: biochemical
SIRT2 [6] = biological target: T4, SIRT2; assay: as above; type: biochemical; details: read-out: Inhibition (%±SD) / SIRT2 / 50 μM / SIRT1 / 100 μM
SIRT3 [7] = biological target: T2, SIRT3; assay: as above; type: biochemical; details: read-out: Inhibition (%±SD) / SIRT3 / 50 μM
[8] = read-out: Inhibition (%±SD) / SIRT2 / 100 μM

inhibition at 100 µM (SIRT1 [2])	inhibition at 100 µM (SIRT3 [3])	inhibition at 50 µM (SIRT2 [4])	inhibition at 100 µM (SIRT2 [4]; [8])	Compound	further results
11.3 ± 1.83%	17.5 ± 0.57%	21.6 ± 4.19%	48.5 ± 0.3%	Cn1ccc(NC(=O)Nc2ccc3c(c2)C(=O)c2cc(NC(=O)Nc4ccn(C)n4)ccc2-3)n1 [SG2]	–
24.7 ± 5.02%	42.5 ± 4.88%	67.6 ± 3.95%	101 ± 7.54%	O=C(Nc1ccc2c(c1)C(=O)c1cc(NC(=O)Nc3ccccn3)ccc1-2)Nc1ccccn1 [SG4, 1,1′‐(9‐oxo‐9H‐fluorene‐2,7‐diyl)bis[3‐(pyridin‐2‐yl)urea]]	IC50 (SIRT2 [5]): 6.65 µM
–	90 ± 3.41%	51 ± 2.28%	71.4 ± 6.51%	O=C(CSc1ccccc1)Nc1ccc2c(c1)C(=O)c1cc(NC(=O)CSc3ccccc3)ccc1-2 [SG9, N,N′‐(9‐Oxo‐9H‐fluorene‐2,7‐diyl)bis[2‐(phenylthio)acetamide]]	inhibition at 50 µM (SIRT3 [7]): 85%
88.4 ± 4.45%	95.84 ± 0.52%	–	85.5 ± 5.68%	CN(CC(=O)Nc1ccc2c(c1)C(=O)c1cc(NC(=O)CN(C)c3ccccc3)ccc1-2)c1ccccc1 [SG12, N,N′‐(9‐oxo‐9H‐fluorene‐2,7‐diyl)bis{2‐[methyl(phenyl)amino]acetamide}]	inhibition at 50 µM (SIRT2 [6]): 74.7%; inhibition at 50 µM (SIRT3 [7]): 70.1%

The remaining lines, values behind:

Compound	inhibition at 100 µM (SIRT1 [2])	inhibition at 100 µM (SIRT3 [3])	inhibition at 50 µM (SIRT2 [4])	inhibition at 100 µM (SIRT2 [4]; [8])	further results
NC(=O)C1CCCc2c1[nH]c1ccc(Cl)cc21 (racemic) [EX‐527]	–	–	–	–	inhibition at 50 µM (SIRT1 [1]): 90.2%
O=C(Nc1ccc2c(c1)C(=O)c1cc(NC(=O)Nc3nccs3)ccc1-2)Nc1nccs1 [SG1, 1,1′‐(9‐Oxo‐9H‐fluorene‐2,7‐diyl)bis[3‐(thiazol‐2‐yl)urea]]	22.5 ± 3.74%	44.7 ± 2.08%	72.4 ± 2.88%	106 ± 4.22%	IC50 (SIRT2 [5]): 9.67 µM
O=C(Nc1ccc2c(c1)C(=O)c1cc(NC(=O)Nc3ccon3)ccc1-2)Nc1ccon1 [SG3, 1,1′‐(9‐Oxo‐9H‐fluorene‐2,7‐diyl)bis[3‐(isoxazol‐3‐yl)urea]]	–	18.6 ± 1.54%	77.8 ± 1.7%	84.4 ± 4.07%	IC50 (SIRT2 [5]): 1.95 µM
O=C(COc1ccc2c(c1)C(=O)c1cc(OCC(=O)Nc3nccs3)ccc1-2)Nc1nccs1 [SG5, 2,2′‐[(9‐Oxo‐9H‐fluorene‐2,7‐diyl)bis(oxy)]bis[N‐(thiazol‐2‐yl)acetamide]]	71.2 ± 5.29%	55.6 ± 4.42%	–	102 ± 8.24%	inhibition at 50 µM (SIRT1 [2]; read-out: Inhibition (%±SD) / SIRT1 / 50 μM): 53.2 ± 1.62%; inhibition at 50 µM (SIRT2 [6]): 62.4%; inhibition at 50 µM (SIRT3 [3]): 51.7 ± 1.56%
Cn1ccc(NC(=O)COc2ccc3c(c2)C(=O)c2cc(OCC(=O)Nc4ccn(C)n4)ccc2-3)n1 [SG6]	27.8 ± 1.31%	36.8 ± 2.26%	64 ± 3.84%	65.6 ± 3.34%	inhibition at 50 µM (SIRT3 [3]): 20.5 ± 7.34%
O=C(COc1ccc2c(c1)C(=O)c1cc(OCC(=O)Nc3ccon3)ccc1-2)Nc1ccon1 [SG7]	–	–	–	21.5 ± 2.37%	–
O=C(COc1ccc2c(c1)C(=O)c1cc(OCC(=O)Nc3ccccn3)ccc1-2)Nc1ccccn1 [SG8, 2,2′‐[(9‐Oxo‐9H‐fluorene‐2,7‐diyl)bis(oxy)]bis[N‐(pyridin‐2‐yl)acetamide]]	13.2 ± 2.22%	83.07 ± 0.27%	–	103 ± 2.61%	inhibition at 50 µM (SIRT2 [6]): 99.8%; inhibition at 50 µM (SIRT3 [7]): 76.4%
Cn1ccnc1SCC(=O)Nc1ccc2c(c1)C(=O)c1cc(NC(=O)CSc3nccn3C)ccc1-2 [SG10]	–	–	–	18.1 ± 1.88%	–
Cc1cc(C)nc(SCC(=O)Nc2ccc3c(c2)C(=O)c2cc(NC(=O)CSc4nc(C)cc(C)n4)ccc2-3)n1 [SG11]	–	–	–	17.2 ± 6.1%	–
Cc1ccc(C(=O)Nc2ccc(S(=O)(=O)O)c3cc(S(=O)(=O)O)cc(S(=O)(=O)O)c23)cc1NC(=O)c1cccc(NC(=O)Nc2cccc(C(=O)Nc3cc(C(=O)Nc4ccc(S(=O)(=O)O)c5cc(S(=O)(=O)O)cc(S(=O)(=O)O)c45)ccc3C)c2)c1 [Suramin]	–	–	–	–	inhibition at 100 µM (SIRT2 [4]; read-out: % inhibition): 98.52 ± 0.45%; inhibition (SIRT2 [4]; [8]): 78.92 ± 0.67%
